# Source: patent US6544991B2, “Compositions and methods for treating bacterial infections” (priority 2000, dated 2003)
# What was measured:
# MRSA strains = experiment: MIC by agar dilution or microbroth dilution method (NCCLS); type: cell-based, Staph. aureus
# Description: (§1) Bacterial isolates were obtained from human infections. The isolates were maintained frozen in a liquid nitrogen freezer and plated on Trypticase Soy Agar (TSA) plates supplemented with 5% sheep blood. The quality control strain Staph. aureus 29213 was originally acquired from the American Type Culture Collection (Rockville, Md.).
# (§2) MICs were determined by an agar dilution method or microbroth dilution method recommended by NCCLS. Synergy was assessed by agar dilution checker-board method. Minimal inhibitory concentrations (MICS) for each separate drug were determined. The fractional inhibitory concentration (FIC) values were calculated by the MIC of Drug A (e.g., sulbactam/ampicillin) and Drug B (e.g., linezolid or arbekacin) in combination/MIC of Drug A or B alone. The FIC index was determined according to the following formula: [formula]
# VRSA strains = experiment: MIC by agar dilution or microbroth dilution method (NCCLS), VRSA strains; type: cell-based, Staph. aureus; settings: VRSA strains (n = 10)
# Description: as §1, §2
# In total, 48 MRSA strains were tested, including ten VRSA strains isolated from five different countries in the world, 33 MRSA strains isolated from ten Japanese university hospitals, and five MRSA type strains from Juntendo University, Department of Bacteriology, Tokyo, Japan.
# Staph. aureus 29213 = experiment: MIC, quality control strain; type: cell-based
# Description: as §1, §2
# [1] = strain JSCC 581 (lacks the mecA gene)
# [2] = strain JSCC 590 (lacks the mecA gene)
# [3] = strain ATCC 29213, control sample (Ex. 26)
# [4] = strain ATCC29213, control sample (Ex. 37)
compound,measurement,setting,value
"CO/N=C(\C(=O)N[C@@H]1C(=O)N2C(C(=O)O)=CCS[C@H]12)c1csc(N)n1 [CZX, ceftizoxime]",MICs 50%,MRSA strains; MRSA strains (n = 38),>128 mg/L
same,MICs 90%,MRSA strains; MRSA strains (n = 38),>128 mg/L
same,MIC Values,MRSA strains; strain 85/2082,>128 µg/mL
same,MIC Values,MRSA strains; strain 99.3700W,>128 µg/mL
same,MIC Values,MRSA strains; strain 99.3759V,>128 µg/mL
same,MIC Values,MRSA strains; strain AMC 11094,>128 µg/mL
same,MIC Values,MRSA strains; strain BM12612(new),>128 µg/mL
same,MIC Values,MRSA strains; strain H1,2048 µg/mL
same,MIC Values,MRSA strains; strain HIP 5827,>128 µg/mL
same,MIC Values,MRSA strains; strain HIP 5836,>128 µg/mL
same,MIC Values,MRSA strains; strain HIP 6297,>128 µg/mL
same,MIC Values,MRSA strains; strain HIP 7737,>128 µg/mL
same,MIC Values,MRSA strains; strain JSCC 340,>128 µg/mL
same,MIC Values,MRSA strains; strain JSCC 351,>128 µg/mL
same,MIC Values,MRSA strains; strain JSCC 363,>128 µg/mL
same,MIC Values,MRSA strains; strain JSCC 381,>128 µg/mL
same,MIC Values,MRSA strains; strain JSCC 390,>128 µg/mL
same,MIC Values,MRSA strains; strain JSCC 401,>128 µg/mL
same,MIC Values,MRSA strains; strain JSCC 413,>128 µg/mL
same,MIC Values,MRSA strains; strain JSCC 431,>128 µg/mL
same,MIC Values,MRSA strains; strain JSCC 440,>128 µg/mL
same,MIC Values,MRSA strains; strain JSCC 451,>128 µg/mL
same,MIC Values,MRSA strains; strain JSCC 463,>128 µg/mL
same,MIC Values,MRSA strains; strain JSCC 481,>128 µg/mL
same,MIC Values,MRSA strains; strain JSCC 490,>128 µg/mL
same,MIC Values,MRSA strains; strain JSCC 501,>128 µg/mL
same,MIC Values,MRSA strains; strain JSCC 513,>128 µg/mL
same,MIC Values,MRSA strains; strain JSCC 531,>128 µg/mL
same,MIC Values,MRSA strains; strain JSCC 540,>128 µg/mL
same,MIC Values,MRSA strains; strain JSCC 551,>128 µg/mL
same,MIC Values,MRSA strains; strain JSCC 563,16 µg/mL
same,MIC Values,MRSA strains; [1],16 µg/mL
same,MIC Values,MRSA strains; [2],16 µg/mL
same,MIC Values,MRSA strains; strain JSCC 601,>128 µg/mL
same,MIC Values,MRSA strains; strain JSCC 640,>128 µg/mL
same,MIC Values,MRSA strains; strain JSCC 651,>128 µg/mL
same,MIC Values,MRSA strains; strain JSCC 663,>128 µg/mL
same,MIC Values,MRSA strains; strain JSCC 681,>128 µg/mL
same,MIC Values,MRSA strains; strain JSCC 690,>128 µg/mL
same,MIC Values,MRSA strains; strain JSCC 701,>128 µg/mL
same,MIC Values,MRSA strains; strain JSCC 713,>128 µg/mL
same,MIC Values,MRSA strains; strain JSCC 731,>128 µg/mL
same,MIC Values,MRSA strains; strain JSCC 740,>128 µg/mL
same,MIC Values,MRSA strains; strain JSCC 751,>128 µg/mL
same,MIC Values,MRSA strains; strain JSCC 763,>128 µg/mL
same,MIC Values,MRSA strains; strain JSCC 781,>128 µg/mL
same,MIC Values,MRSA strains; strain JSCC 870,>128 µg/mL
same,MIC Values,MRSA strains; strain LIM 2,>128 µg/mL
same,MIC Values,MRSA strains; strain Mu 3,>128 µg/mL
same,MIC Values,MRSA strains; strain Mu 50,>128 µg/mL
same,MIC Values,MRSA strains; strain N315,64 µg/mL
same,MIC Values,MRSA strains; strain NCTC 10442,>128 µg/mL
same,MICs 50%,VRSA strains,>128 mg/L
same,MICs 90%,VRSA strains,>128 mg/L
same,MICs Range,VRSA strains,>128 mg/L
same,MIC Values,Staph. aureus 29213; [3],8 µg/mL
same,MIC Values,Staph. aureus 29213; [4],4 µg/mL
"C[C@@H](O)[C@H]1C(=O)N2C(C(=O)O)=C(SCCN=CN)C[C@H]12 [IPM, imipenem]",MICs 50%,MRSA strains; MRSA strains (n = 38),16 mg/L
same,MICs 90%,MRSA strains; MRSA strains (n = 38),64 mg/L
same,MICs Range,MRSA strains; MRSA strains (n = 38),>0.125 to 128 mg/L
same,MIC Values,MRSA strains; strain 85/2082,2 µg/mL
same,MIC Values,MRSA strains; strain 99.3700W,32 µg/mL
same,MIC Values,MRSA strains; strain 99.3759V,64 µg/mL
same,MIC Values,MRSA strains; strain AMC 11094,32 µg/mL
same,MIC Values,MRSA strains; strain BM12612(new),128 µg/mL
same,MIC Values,MRSA strains; strain H1,64 µg/mL
same,MIC Values,MRSA strains; strain HIP 5827,64 µg/mL
same,MIC Values,MRSA strains; strain HIP 5836,8 µg/mL
same,MIC Values,MRSA strains; strain HIP 6297,1 µg/mL
same,MIC Values,MRSA strains; strain HIP 7737,32 µg/mL
same,MIC Values,MRSA strains; strain JSCC 340,64 µg/mL
same,MIC Values,MRSA strains; strain JSCC 351,32 µg/mL
same,MIC Values,MRSA strains; strain JSCC 363,32 µg/mL
same,MIC Values,MRSA strains; strain JSCC 381,32 µg/mL
same,MIC Values,MRSA strains; strain JSCC 390,32 µg/mL
same,MIC Values,MRSA strains; strain JSCC 401,64 µg/mL
same,MIC Values,MRSA strains; strain JSCC 413,16 µg/mL
same,MIC Values,MRSA strains; strain JSCC 431,1 µg/mL
same,MIC Values,MRSA strains; strain JSCC 440,16 µg/mL
same,MIC Values,MRSA strains; strain JSCC 451,64 µg/mL
same,MIC Values,MRSA strains; strain JSCC 463,64 µg/mL
same,MIC Values,MRSA strains; strain JSCC 481,64 µg/mL
same,MIC Values,MRSA strains; strain JSCC 490,32 µg/mL
same,MIC Values,MRSA strains; strain JSCC 501,32 µg/mL
same,MIC Values,MRSA strains; strain JSCC 513,8 µg/mL
same,MIC Values,MRSA strains; strain JSCC 531,32 µg/mL
same,MIC Values,MRSA strains; strain JSCC 540,64 µg/mL
same,MIC Values,MRSA strains; strain JSCC 551,16 µg/mL
same,MIC Values,MRSA strains; strain JSCC 563,≦0.125 mcg/mL
same,MIC Values,MRSA strains; [1],≦0.125 mcg/mL
same,MIC Values,MRSA strains; [2],≦0.125 mcg/mL
same,MIC Values,MRSA strains; strain JSCC 601,1 µg/mL
same,MIC Values,MRSA strains; strain JSCC 640,32 µg/mL
same,MIC Values,MRSA strains; strain JSCC 651,32 µg/mL
same,MIC Values,MRSA strains; strain JSCC 663,8 µg/mL
same,MIC Values,MRSA strains; strain JSCC 681,8 µg/mL
same,MIC Values,MRSA strains; strain JSCC 690,16 µg/mL
same,MIC Values,MRSA strains; strain JSCC 701,32 µg/mL
same,MIC Values,MRSA strains; strain JSCC 713,32 µg/mL
same,MIC Values,MRSA strains; strain JSCC 731,32 µg/mL
same,MIC Values,MRSA strains; strain JSCC 740,16 µg/mL
same,MIC Values,MRSA strains; strain JSCC 751,32 µg/mL
same,MIC Values,MRSA strains; strain JSCC 763,8 µg/mL
same,MIC Values,MRSA strains; strain JSCC 781,32 µg/mL
same,MIC Values,MRSA strains; strain JSCC 870,16 µg/mL
same,MIC Values,MRSA strains; strain LIM 2,8 µg/mL
same,MIC Values,MRSA strains; strain Mu 3,128 µg/mL
same,MIC Values,MRSA strains; strain Mu 50,64 µg/mL
same,MIC Values,MRSA strains; strain N315,1 µg/mL
same,MIC Values,MRSA strains; strain NCTC 10442,64 µg/mL
same,MICs 50%,VRSA strains,32 mg/L
same,MICs 90%,VRSA strains,64 mg/L
same,MICs Range,VRSA strains,1 to 128 mg/L
same,MIC Values,Staph. aureus 29213; [3],≦0.125 mcg/mL
same,MIC Values,Staph. aureus 29213; [4],≦0.125 mcg/mL
